Test results from paper PMC4626215, “Esculentin-2CHa-Related Peptides Modulate Islet Cell Function and Improve Glucose Tolerance in Mice with Diet-Induced Obesity and Insulin Resistance” (PLoS ONE, 2015).
Bridges are numbered along the chain shown (N, C = ends). Where no end group is shown, it is not given here.

Experiments:
[1] = tested on: BRIN-BD11 rat clonal β-cells; assay: In vitro insulin release from BRIN-BD11 cells; assay type: cell-based; settings: 5.6 mM glucose
Method: (§4) In vitro insulin-releasing effects of esculentin-2CHa and its analogues were assessed using BRIN-BD11 rat clonal β-cells and mouse islets. In the first set of experiments, BRIN-BD11 cells were incubated with the peptides in the concentration range (1 pM– 3 μM) in Krebs-Ringer bicarbonate buffer containing 5.6 mM glucose for 20 min at 37°C as previously described [15–17]. Insulin-releasing effects were also assessed using buffer supplemented with 1.4 and 16.7mm glucose concentrations and with established modulators of insulin release as previously described [15–17]. In a second set of experiments, islets from NIH Swiss mice, isolated by collagenase digestion [18, 19], were incubated with a range of concentrations of esculentin-2CHa or its analogues (0.1 nM– 1 μM) for 1 h in Krebs-Ringer bicarbonate (KRB) buffer supplemented with 1.4, 5.6 or 16.7 mM glucose. Following test incubations, aliquots of buffer were retrieved and stored at -20°C for measurement of insulin by radioimmunoassay [20].

[2] = tested on: islets from NIH Swiss mice; assay: In vitro insulin release from isolated mouse islets; assay type: cell-based; settings: 16.7 mM glucose
Method: as §4

BRIN-BD11 cells [3] = settings: 3 μM peptide (highest concentration); mean ± SEM, n = 8
Method: In vitro insulin-releasing effects of esculentin-2CHa and its analogues were assessed using BRIN-BD11 rat clonal β-cells and mouse islets. In the first set of experiments, BRIN-BD11 cells were incubated with the peptides in the concentration range (1 pM– 3 μM) in Krebs-Ringer bicarbonate buffer containing 5.6 mM glucose for 20 min at 37°C as previously described. Insulin-releasing effects were also assessed using buffer supplemented with 1.4 and 16.7mm glucose concentrations and with established modulators of insulin release as previously described. In a second set of experiments, islets from NIH Swiss mice, isolated by collagenase digestion, were incubated with a range of concentrations of esculentin-2CHa or its analogues (0.1 nM– 1 μM) for 1 h in Krebs-Ringer bicarbonate (KRB) buffer supplemented with 1.4, 5.6 or 16.7 mM glucose. Following test incubations, aliquots of buffer were retrieved and stored at -20°C for measurement of insulin by radioimmunoassay. In the experiments with BRIN-BD11 cells, the release of lactate dehydrogenase (LDH) was measured as an indicator of the integrity of the plasma membrane using commercially available CytoTox 96 non-radioactive cytotoxicity assay kit (Promega, Madison, WI, USA) according to the manufacturer’s recommended protocol.

BRIN-BD11 cells [4] = assay: Membrane potential, FLIPR membrane assay kit; assay type: cell-based, rat; settings: 1 μM peptide, 5 min; mean ± SEM, n = 8
Method: (§1) Effects of esculentin-2CHa (1 μM) and its analogues on membrane potential and [Ca^2+]i in BRIN-BD11 cells over a period of 5 min were assessed using commercially available FLIPR membrane or calcium assay kit (Molecular Devices, USA) as previously described. Data were captured using a Flexstation 3 microplate reader equipped with automatic fluid transfer unit (Molecular Devices, USA).

BRIN-BD11 cells [5] = assay: Intracellular calcium ([Ca2+]i), FLIPR calcium assay kit; assay type: cell-based, rat; settings: 1 μM peptide, 5 min; mean ± SEM, n = 8
Method: as §1

high fat fed mice [6] = assay: Acute in vivo glucose tolerance and insulin release; set-up: species or system mouse
Method: (§2) Male National Institutes of Health (NIH) Swiss mice (Harlan Ltd, UK) were housed separately in an air-conditioned room (22 ± 2°C) with relative humidity of 51 ± 5% and a 12-hour light: 12-hour dark cycle and maintained on a high fat diet containing 45% fat, 20% protein and 35% carbohydrate (total energy 19.5 kJ/g, Dietex International Ltd, Witham, UK) for 120 days. Mice maintained on standard rodent diet containing 10% fat, 30% protein and 60% carbohydrates (total energy 12.99 kJ/g) were used as controls. Both groups of animals were allowed food and water ad libitum. All animal experiments were carried out in accordance with the UK Animals (Scientific Procedures) Act 1986 and EU Directive 2010/63EU for animal experiments. The study was approved by University of Ulster Research Ethics Committee.
For acute in vivo studies, overnight fasted, high fat fed mice (n = 8) received an intraperitoneal injection of glucose alone (18 mmol/kg body weight) or in combination with esculentin-2CHa or its analogues (75 nmol/kg body weight). This peptide dose was selected on the basis of a pilot study that examined acute effects of different doses of esculentin-2CHa on glucose tolerance in lean mice. Blood samples were collected as described previously before injection and at times indicated in the Figures for the measurement of plasma glucose and insulin concentrations.
(§3) Pancreatic tissues were homogenized in 20 mM Tris-HCl, 150 mM NaCl, 1 mM EDTA, 1 mM EGTA and 0.5% Triton X 100; pH 7.5 as previously described. Blood samples (approximately 150 μl), collected from the cut tip of the tail vein of unanesthetized mice at intervals indicated in the Figures were used for blood glucose measurements and determination of plasma insulin as previously described. Blood glucose was measured using a hand-held Ascencia Contour meter (Bayer Healthcare, UK). Plasma and pancreatic insulin were determined by radioimmunoassay. Plasma and pancreatic glucagon contents were determined by ELISA using commercially available kit (Millipore, MA, USA). Plasma creatinine, alanine transaminase (ALT), aspartic acid transaminase (AST) and alkaline phosphatase (ALP) were measured using commercially available kits (Randox Laboratories, UK) as indicators of renal and liver function. Plasma triglyceride and cholesterol concentrations were measured using an automated clinical chemistry analyser (I-lab 650, and reagents purchased from Instrumentation Laboratory (Warrington, UK). The assay kit for cholesterol was obtained from Randox Laboratories (Antrim, UK). Estimation of LDL cholesterol concentrations was achieved using the Friedewald equation as described previously.

high fat fed mice [7] = assay: Longer-term (28 day) in vivo study; set-up: species or system mouse; Reduction of pancreatic glucagon / Reduction of plasma glucagon / Reduction of total islet area / Reduction of beta cell area / Reduction of alpha cell area: concentration or dose not given beside the values
Method: as §2
High-fat fed mice with clearly manifested features of obesity and hyperglycaemia received twice daily injections of either saline vehicle (0.9% (w/v) (high fat fed controls) or [L28K]esculentin-2CHa (75 nmol/kg body weight) for 28 days. This peptide was chosen based on its potent in vitro and acute in vivo actions. Mice (n = 8) fed standard rodent diet and injected with saline were used as lean controls. Energy intake, bodyweight, non-fasting blood glucose and plasma insulin concentrations were monitored every 72 h throughout the duration of the study. At the end of the 28 day treatment period, glucose tolerance (18 mmol/kg body weight, intraperitoneal or oral, overnight fasted) and insulin sensitivity (25 U/kg body weight) were assessed as previously described. Indirect calorimetry and energy expenditure in treated and control mice were measured using the Comprehensive Laboratory Animal Monitoring System (CLAMS) metabolic chambers (Columbus Instruments, Columbus, OH, USA). Total body lean and fat mass, bone mineral density and bone mineral content were also measured using DXA scanning (Piximus Densitometer, USA). Improvement in beta cell function in [L28K]esculentin-2CHa-treated and control mice were evaluated from the insulin secretory responses of islets isolated from these animals to established insulin secretagogues and incretin hormones (16.7 mM glucose, 1 μM GLP-1, 1 μM GIP, 10 mM alanine, 10 mM arginine and 30 mM KCl). Changes in islet morphology were assessed using pancreatic tissues excised from mice treated with [L28K]esculentin-2CHa or saline for 28 days as previously described.
as §3

[8] = ip glucose 18 mmol/kg with peptide 75 nmol/kg, AUC 0-60 min, mean ± SEM, n = 8
[9] = peptide 75 nmol/kg ip with glucose 18 mmol/kg
[10] = 75 nmol/kg twice daily, 28 days
[11] = after 28 days treatment, ip glucose 18 mmol/kg
[12] = after 28 days treatment, oral glucose 18 mmol/kg

GFSSIFRGVAKFASKGLGKDLAKLGVDKVACKISKQC (disulfide 31-37 (inferred)) [[L28K]Esculentin-2CHa, substituted analogue of esculentin-2CHa chosen for 28 day study]
Stimulatory effect on insulin release at 3 μM compared with native peptide ([1]; 3 μM): greater
BRIN-BD11 cells (Threshold concentration) ([1]; minimum concentration producing a significant increase in rate of insulin release, 20 min, 37°C, n = 8): 10 pM
Stimulation of insulin release from islets, fold of basal ([2]; 1 μM, 1 h): 3.4 fold
Mouse islets (Threshold concentration) ([2]; insulin release, 1 h incubation, n = 8): 1 nM
LDH release (% of control) (BRIN-BD11 cells [3]): 101.8±1.5 % of control
Membrane potential (AUC, x 10^3 RFU) (BRIN-BD11 cells [4]): 7.78±0.22 x 10^3 RFU
Intracellular Ca2+ (AUC, x 10^2 RFU) (BRIN-BD11 cells [5]): 7.28±0.94 x 10^2 RFU
Plasma glucose (AUC) (high fat fed mice [6]; [8]): 327.61±36.87 ^, Δ mmol/l.min
Plasma insulin (AUC) (high fat fed mice [6]; [8]): 262.81±30.56 ^,ΔΔΔ ng/ml.min
Decrease of plasma glucose AUC versus glucose alone (high fat fed mice [6]; [9]): 52%
Stimulation of insulin response relative to that with esculentin-2CHa (high fat fed mice [6]; [9]): 2.8 fold
Body weight (high fat fed mice [7]; [10]): did not affect
Food intake (high fat fed mice [7]; [10]): did not affect
Increase in non-fasting plasma insulin versus saline-treated controls (high fat fed mice [7]; [10]): 42%
Reduction in non-fasting plasma glucose versus saline-treated controls (high fat fed mice [7]; [10]): 25%
Adverse effects (high fat fed mice [7]; 28 days treatment): no adverse effects were observed
Decrease in plasma creatinine (high fat fed mice [7]; 28 days treatment): 40%
Number of islets per mm^2 of pancreas (high fat fed mice [7]; 28 days treatment): did not affect
Plasma HDL cholesterol (high fat fed mice [7]; 28 days treatment): no effect
Plasma triglycerides (high fat fed mice [7]; 28 days treatment): decreased
Reduction of alpha cell area (high fat fed mice [7]; 28 days treatment): 48%
Reduction of beta cell area (high fat fed mice [7]; 28 days treatment): 43%
Reduction of total islet area (high fat fed mice [7]; 28 days treatment): 44%
Total pancreatic insulin content (greater in high fat fed mice) (high fat fed mice [7]; 28 days treatment): reversed
O2 consumption, CO2 production, energy expenditure and respiratory exchange ratio (high fat fed mice [7]; 28 days treatment, CLAMS metabolic chambers): not affected
Bone area (high fat fed mice [7]; 28 days treatment, DXA): reversed the loss
Reduction of pancreatic glucagon (high fat fed mice [7]; 28 days treatment, ELISA): 20%
Reduction of plasma glucagon (high fat fed mice [7]; 28 days treatment, ELISA): 35%
Insulin sensitivity (high fat fed mice [7]; after 28 days treatment, insulin 25 U/kg ip): no significant effect
Improvement of glucose AUC 0–60 min, intraperitoneal glucose tolerance (high fat fed mice [7]; [11]): 20%
Improvement of insulin AUC 0–60 min, intraperitoneal glucose (high fat fed mice [7]; [11]): 66%
Improvement of glycaemic excursion following oral glucose (high fat fed mice [7]; [12]): 23%
Improvement of insulin response following oral glucose (high fat fed mice [7]; [12]): 68%
Insulin-secretory responses of isolated islets to secretagogues (high fat fed mice [7]; islets from mice treated 28 days, glucose, GLP-1, GIP, alanine, arginine, KCl): restored
